Source: paper PMC5509440 (Bioorganic & medicinal chemistry, 2017)
pIC50: −log10 of the molar value. Entries after “also recorded” stand apart in the source; their conditions may differ.

Columns and labels:
[1] = system: T. b. brucei Lister 427 cells; experiment: T. brucei cell viability analysis; type: cell-based; conditions: Trypanosoma brucei, 48 h, read-out: IC50 against T. brucei cells, bloodstream form T. b. brucei Lister 427, 48 hrs, MTS
[2] = target: tubulin polymerization in T. brucei cells (Trypanosoma brucei rhodesiense, UniProt P04106+P04107); type: cell-based; conditions: different doses, 7 hrs, western blot with TAT-1 antibody
tubulin polymerization in T. brucei cells, sequence (P04106 whole entry): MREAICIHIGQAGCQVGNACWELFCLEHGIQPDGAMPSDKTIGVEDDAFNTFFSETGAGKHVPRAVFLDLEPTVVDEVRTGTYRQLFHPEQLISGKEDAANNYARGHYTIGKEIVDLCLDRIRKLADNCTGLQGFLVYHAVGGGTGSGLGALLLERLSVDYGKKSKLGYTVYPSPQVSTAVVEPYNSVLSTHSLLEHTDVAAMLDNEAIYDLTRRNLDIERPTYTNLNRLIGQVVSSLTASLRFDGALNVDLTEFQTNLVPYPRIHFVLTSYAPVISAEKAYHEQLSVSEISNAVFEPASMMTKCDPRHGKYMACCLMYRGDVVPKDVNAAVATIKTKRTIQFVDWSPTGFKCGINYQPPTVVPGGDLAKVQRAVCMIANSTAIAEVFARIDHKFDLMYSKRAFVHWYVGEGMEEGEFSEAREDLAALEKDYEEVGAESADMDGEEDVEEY
tubulin polymerization in T. brucei cells, sequence (P04107 whole entry): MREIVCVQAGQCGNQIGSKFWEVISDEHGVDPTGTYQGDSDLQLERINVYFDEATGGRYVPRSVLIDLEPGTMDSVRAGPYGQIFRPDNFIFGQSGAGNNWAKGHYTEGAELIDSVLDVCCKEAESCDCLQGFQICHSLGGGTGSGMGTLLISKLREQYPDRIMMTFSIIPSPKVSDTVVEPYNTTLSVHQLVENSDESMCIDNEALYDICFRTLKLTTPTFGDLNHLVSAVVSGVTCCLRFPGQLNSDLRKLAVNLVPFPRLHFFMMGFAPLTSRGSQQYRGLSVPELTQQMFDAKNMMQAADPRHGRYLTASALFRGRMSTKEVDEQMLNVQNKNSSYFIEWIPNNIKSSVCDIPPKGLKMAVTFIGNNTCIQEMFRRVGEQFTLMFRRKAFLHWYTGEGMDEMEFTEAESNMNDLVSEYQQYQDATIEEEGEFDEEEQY

| Compound | pIC50 [1] | amount of polymerized tubulin in T. brucei cells [2] |
| --- | --- | --- |
| CN(c1ccc(NC(=O)c2cc(C(F)(F)F)cc(C(F)(F)F)c2)cc1OCc1ccc(C(F)(F)F)cc1)S(=O)(=O)Cc1ccccc1 [Compound 11, N-(4-(N-methyl-1-phenylmethylsulfonamido)-3-((4-(trifluoromethyl)benzyl)oxy)phenyl)-3,5-bis(trifluor omethyl)benzamide] | > 5.30 |  |
| CN(c1ccc(NC(=O)c2ccc(C#N)cc2)cc1OCc1ccc(C(F)(F)F)cc1)S(=O)(=O)Cc1ccccc1 [Compound 15, 4-cyano-N-(4-(N-methyl-1-phenylmethylsulfonamido)-3-((4-(trifluoromethyl)benzyl)oxy)phenyl)benzamide] |  | decreased the amount of polymerized tubulin in a dose-dependent manner; also recorded: level of polymerized tubulin is significantly decreased |
